In PMC6166654 (Leukemia, 2018):

Columns and labels:
TF1/SHP2^E76K cells [1] = assay: Methylcellulose colony formation assay; type: cell-based, human; details: methylcellulose culture, 10 µM SHP099, day 7
TF1/SHP2^E69K cells [2] = assay: Methylcellulose colony formation assay; type: cell-based, human; details: methylcellulose culture, 10 µM SHP099, day 7
TF1/SHP2^E69K cells [3] = assay: Cell growth in GM-CSF free medium; type: cell-based, human; details: read-out: cell growth IC50, 5 days
TF1/SHP2^A72V cells = assay: Immunoblot analysis of cell lysates; type: cell-based, human; details: 2 days of SHP099 treatment
[4] = test system: SHP2-knocked out TF-1 cell lines (TF1/KO1, TF1/KO2); assay: Cell growth and cell lysate analysis in SHP2 knockout cells; type: cell-based, human; details: medium with GM-CSF
MV4-11 cells = assay: Immunoblot analysis of cell lysates; type: cell-based
TF-1 cells [5] = assay: Cell growth; type: cell-based, human; details: read-out: cell growth IC50, medium with GM-CSF, 5 days
TF-1 cells [6] = assay: Immunoblot analysis of cell lysates; type: cell-based, human
TF1/SHP2^E69K cells [7] = assay: Immunoblot analysis of cell lysates; type: cell-based, human; details: 2 days of SHP099 treatment
TF1/SHP2^D61Y cells = assay: Immunoblot analysis of cell lysates; type: cell-based, human; details: 2 days of SHP099 treatment
[8] = test system: MV4-11 myeloid leukemia cells; assay: Cell growth; type: cell-based; details: read-out: cell growth IC50; MV4-11 cells; 5 days
TF1/SHP2^E76K cells [9] = assay: Immunoblot analysis of cell lysates; type: cell-based, human; details: 2 days of SHP099 treatment

## CC1(N)CCN(c2cnc(-c3cccc(Cl)c3Cl)c(N)n2)CC1 [SHP099]
TF1/SHP2^E76K cells [1]
  GM-CSF hypersensitivity: did not affect
  cytokine-independent colonies: little effect
TF1/SHP2^E69K cells [2]
  GM-CSF hypersensitivity: lost
  cytokine-independent colonies: eliminated
TF1/SHP2^E69K cells [3]
  IC50: 1460 ± 460 nM
TF1/SHP2^A72V cells
  Bcl-XL level: little effect
  PARP cleavage: did not induce
  pERK1/2 level: little effect
[4]
  effects in SHP2-knocked out TF-1 cell lines: little effects
MV4-11 cells
  Bcl-XL level: reduced
  PARP cleavage: induced
  pERK1/2 level: reduced
TF-1 cells [5]
  IC50: 1730 ± 520 nM
TF-1 cells [6]
  Bcl-XL level: reduced
  PARP cleavage: induced
  active ERK: inhibited
TF1/SHP2^E69K cells [7]
  Bcl-XL level: reduced
  PARP cleavage: induction
  pERK1/2 level: reduced
TF1/SHP2^D61Y cells
  Bcl-XL level: little effect
  PARP cleavage: did not induce
  pERK1/2 level: little effect
[8]
  IC50: 320 ± 110 nM
TF1/SHP2^E76K cells [9]
  Bcl-XL level: little effect
  PARP cleavage: did not induce
  pERK1/2 level: little effect
